These results are taken from BindingDB's records for PubMed 7853174 (Merck Research Laboratories, 1995).

In this assay the target is T1, Type-2 angiotensin II receptor (Rattus norvegicus, UniProt P35351).
T1 sequence (P35351 whole entry): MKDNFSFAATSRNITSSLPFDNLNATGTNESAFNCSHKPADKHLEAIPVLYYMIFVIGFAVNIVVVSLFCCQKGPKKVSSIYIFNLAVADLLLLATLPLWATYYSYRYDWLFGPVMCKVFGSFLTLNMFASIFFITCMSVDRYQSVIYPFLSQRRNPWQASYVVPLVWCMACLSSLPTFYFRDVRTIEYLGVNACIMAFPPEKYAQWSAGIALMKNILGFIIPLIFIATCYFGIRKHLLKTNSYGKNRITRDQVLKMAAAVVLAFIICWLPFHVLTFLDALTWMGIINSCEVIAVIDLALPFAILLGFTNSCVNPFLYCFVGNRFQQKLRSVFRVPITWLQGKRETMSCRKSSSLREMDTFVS

Molecules are shown by their SMILES.

For orientation: Ki means a dissociation constant, usually derived from enzyme kinetics or from competition with a known ligand. The low end stands for tighter binding, the high end for weaker binding. `CCCc1nc(C(F)(F)C(F)(F)F)c(C(=O)O)n1Cc1ccc(-c2ccccc2-c2nnn[nH]2)cc1` [CAS_124750-95-4]: the affinity corresponds to a Ki of 5.77 µM.
